US6479435B1, “Diaryl ethers and processes for their preparation and herbicidal and desiccant compositions containing them” (ISK Americas Incorporated, priority 1997, dated 2002)

Tests used:
Format in all cases: in vivo
[1] = test system: field corn (Zea mays L., var. Dekalb 535, CORN); test: Pre-emerge greenhouse test, crop damage rating; conditions: 14 days after application, rating scale 0-100
In short: (§1)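 Visual 0–100 injury rating (100 = all plants dead) taken 14 days after treatment. Rates of 125–1000 g ai/ha in acetone, 187 l/ha, were sprayed onto soil one day post-sowing; pots were surface-watered to incorporate, then bottom-watered.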

[2] = test system: upland rice (Oryza sp., var.Tebonnet, RICE); test: Pre-emerge greenhouse test, crop damage rating; conditions: 14 days after application, rating scale 0-100
In short: as §1

[3] = test system: common ragweed (Ambrosia artemisiifolia L., AMBEL); test: Pre-emerge greenhouse herbicide test, phytotoxicity rating; conditions: 14 days after application, rating scale 0-100
In short: as §1

[4] = test system: barnyardgrass (Echinochloa crusgalli, ECHCG); test: as above; conditions: 14 days after application, rating scale 0-100
In short: as §1

[5] = test system: sicklepod (Cassia obtusifolia, CASOB); test: as above; conditions: 14 days after application, rating scale 0-100
In short: as §1

[6] = test system: Johnsongrass (Sorghum halepense, SORHA); test: as above; conditions: 14 days after application, rating scale 0-100
In short: as §1

[7] = test system: velvetleaf (Abutilon theophrasti, ABUTH); test: as above; conditions: 14 days after application, rating scale 0-100
In short: as §1

[8] = test system: lambsquarters (Chenopodium album, CHEAL); test: as above; conditions: 14 days after application, rating scale 0-100
In short: as §1

[9] = test system: ivyleaf morningglory (Ipomoea hederacea, IPOHE); test: as above; conditions: 14 days after application, rating scale 0-100
In short: as §1

[10] = test system: green foxtail (Setaria viridis, SETVI); test: as above; conditions: 14 days after application, rating scale 0-100
In short: as §1

[11] = test system: large crabgrass (Digitaria sanguinalis, DIGSA); test: as above; conditions: 14 days after application, rating scale 0-100
In short: as §1

[12] = test system: redroot pigweed (Amaranthus retroflexus, AMARE); test: as above; conditions: 14 days after application, rating scale 0-100
In short: as §1

[13] = test system: common ragweed (Ambrosia artemisiifolia L., AMBEL); test: Post-emerge greenhouse herbicide test, phytotoxicity rating; conditions: 14 days after application
In short: (§2)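 Scores use a 0 (no damage) to 100 (complete kill) scale, taken 14 days after a foliar spray. Acetone solutions with 0.25% v/v non-ionic surfactant were applied by track sprayer at 187 l/ha and 63-1000 g ai/ha to bottom-watered 2-3 leaf plants.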

[14] = test system: barnyardgrass (Echinochloa crusgalli, ECHCG); test: as above; conditions: 14 days after application
In short: as §2

[15] = test system: sicklepod (Cassia obtusifolia, CASOB); test: as above; conditions: 14 days after application
In short: as §2

[16] = test system: Johnsongrass (Sorghum halepense, SORHA); test: as above; conditions: 14 days after application
In short: as §2

[17] = test system: velvetleaf (Abutilon theophrasti, ABUTH); test: as above; conditions: 14 days after application
In short: as §2

[18] = test system: lambsquarters (Chenopodium album, CHEAL); test: as above; conditions: 14 days after application
In short: as §2

[19] = test system: ivyleaf morningglory (Ipomoea hederacea, IPOHE); test: as above; conditions: 14 days after application
In short: as §2

[20] = test system: green foxtail (Setaria viridis, SETVI); test: as above; conditions: 14 days after application
In short: as §2

[21] = test system: large crabgrass (Digitaria sanguinalis, DIGSA); test: as above; conditions: 14 days after application
In short: as §2

[22] = test system: redroot pigweed (Amaranthus retroflexus, AMARE); test: as above; conditions: 14 days after application
In short: as §2

[23] = test system: soybean (Glycine max L., var. Pella 86, SOY); test: Pre-emerge greenhouse test, crop damage rating; conditions: 14 days after application, rating scale 0-100
In short: as §1

[24] = test system: soybean (Glycine max L., var. Pella 86, SOY); test: Post-emerge greenhouse test, crop damage rating; conditions: 14 days after application
In short: as §2

[25] = test system: field corn (Zea mays L., var. Dekalb 535, CORN); test: Post-emerge greenhouse test, crop damage rating; conditions: 14 days after application
In short: as §2

[26] = test system: upland rice (Oryza sp., var.Tebonnet, RICE); test: Post-emerge greenhouse test, crop damage rating; conditions: 14 days after application
In short: as §2

Cn1c(C(F)(F)F)nc(-c2cc(Oc3ncccc3[N+](=O)[O-])c(Cl)cc2F)c1Cl [Compound 2-1]
crop damage rating CORN ([1]; 125 g ai/ha): 0 | crop damage rating CORN ([1]; 500 g ai/ha): 0 | crop damage rating RICE ([2]; 125 g ai/ha): 0 | crop damage rating RICE ([2]; 500 g ai/ha): 0 | phytotoxicity rating AMBEL ([3]; 125 g ai/ha): 0 | phytotoxicity rating AMBEL ([3]; 500 g ai/ha): 50 | phytotoxicity rating ECHCG ([4]; 125 g ai/ha): 0 | phytotoxicity rating ECHCG ([4]; 500 g ai/ha): 20 | phytotoxicity rating CASOB ([5]; 125 g ai/ha): 0 | phytotoxicity rating CASOB ([5]; 500 g ai/ha): 30 | phytotoxicity rating SORHA ([6]; 125 g ai/ha): 0 | phytotoxicity rating SORHA ([6]; 500 g ai/ha): 30 | phytotoxicity rating ABUTH ([7]; 125 g ai/ha): 0 | phytotoxicity rating ABUTH ([7]; 500 g ai/ha): 50 | phytotoxicity rating CHEAL ([8]; 125 g ai/ha): 60 | phytotoxicity rating CHEAL ([8]; 500 g ai/ha): 100 | phytotoxicity rating IPOHE ([9]; 125 g ai/ha): 10 | phytotoxicity rating IPOHE ([9]; 500 g ai/ha): 100 | phytotoxicity rating SETVI ([10]; 125 g ai/ha): 90 | phytotoxicity rating SETVI ([10]; 500 g ai/ha): 99 | phytotoxicity rating DIGSA ([11]; 125 g ai/ha): 0 | phytotoxicity rating DIGSA ([11]; 500 g ai/ha): 70 | phytotoxicity rating AMARE ([12]; 125 g ai/ha): 100 | phytotoxicity rating AMARE ([12]; 500 g ai/ha): 100 | AMBEL phytotoxicity rating (0-100) ([13]; 63 g al/ha): 10 | AMBEL phytotoxicity rating (0-100) ([13]; 500 g al/ha): 40 | ECHCG phytotoxicity rating (0-100) ([14]; 63 g al/ha): 0 | ECHCG phytotoxicity rating (0-100) ([14]; 500 g al/ha): 30 | CASOB phytotoxicity rating (0-100) ([15]; 63 g al/ha): 0 | CASOB phytotoxicity rating (0-100) ([15]; 500 g al/ha): 30 | SORHA phytotoxicity rating (0-100) ([16]; 63 g al/ha): 0 | SORHA phytotoxicity rating (0-100) ([16]; 500 g al/ha): 10 | ABUTH phytotoxicity rating (0-100) ([17]; 63 g al/ha): 40 | ABUTH phytotoxicity rating (0-100) ([17]; 500 g al/ha): 85 | CHEAL phytotoxicity rating (0-100) ([18]; 63 g al/ha): 80 | CHEAL phytotoxicity rating (0-100) ([18]; 500 g al/ha): 99 | IPOHE phytotoxicity rating (0-100) ([19]; 63 g al/ha): 60 | IPOHE phytotoxicity rating (0-100) ([19]; 500 g al/ha): 65 | SETVI phytotoxicity rating (0-100) ([20]; 63 g al/ha): 30 | SETVI phytotoxicity rating (0-100) ([20]; 500 g al/ha): 65 | DIGSA phytotoxicity rating (0-100) ([21]; 63 g al/ha): 0 | DIGSA phytotoxicity rating (0-100) ([21]; 500 g al/ha): 20 | AMARE phytotoxicity rating (0-100) ([22]; 63 g al/ha): 90 | AMARE phytotoxicity rating (0-100) ([22]; 500 g al/ha): 100 | crop damage rating SOY ([23]; 125 g ai/ha): 0 | crop damage rating SOY ([23]; 500 g ai/ha): 70 | SOY crop damage rating (0-100) ([24]; 63 g al/ha): 50 | SOY crop damage rating (0-100) ([24]; 500 g al/ha): 75 | CORN crop damage rating (0-100) ([25]; 63 g al/ha): 15 | CORN crop damage rating (0-100) ([25]; 500 g al/ha): 20 | RICE crop damage rating (0-100) ([26]; 63 g al/ha): 0 | RICE crop damage rating (0-100) ([26]; 500 g al/ha): 20

Cn1c(C(F)(F)F)nc(-c2cc(Oc3ncccc3C(F)(F)F)c(Cl)cc2F)c1Cl [Compound 2-2]
crop damage rating CORN ([1]; 500 g ai/ha): 0 | crop damage rating RICE ([2]; 500 g ai/ha): 0 | phytotoxicity rating AMBEL ([3]; 500 g ai/ha): 20 | phytotoxicity rating ECHCG ([4]; 500 g ai/ha): 0 | phytotoxicity rating CASOB ([5]; 500 g ai/ha): 0 | phytotoxicity rating SORHA ([6]; 500 g ai/ha): 30 | phytotoxicity rating ABUTH ([7]; 500 g ai/ha): 10 | phytotoxicity rating CHEAL ([8]; 500 g ai/ha): 60 | phytotoxicity rating IPOHE ([9]; 500 g ai/ha): 60 | phytotoxicity rating SETVI ([10]; 500 g ai/ha): 100 | phytotoxicity rating DIGSA ([11]; 500 g ai/ha): 20 | phytotoxicity rating AMARE ([12]; 500 g ai/ha): 100 | AMBEL phytotoxicity rating (0-100) ([13]; 500 g al/ha): 25 | ECHCG phytotoxicity rating (0-100) ([14]; 500 g al/ha): 30 | CASOB phytotoxicity rating (0-100) ([15]; 500 g al/ha): 0 | SORHA phytotoxicity rating (0-100) ([16]; 500 g al/ha): 40 | ABUTH phytotoxicity rating (0-100) ([17]; 500 g al/ha): 70 | CHEAL phytotoxicity rating (0-100) ([18]; 500 g al/ha): 90 | IPOHE phytotoxicity rating (0-100) ([19]; 500 g al/ha): 75 | SETVI phytotoxicity rating (0-100) ([20]; 500 g al/ha): 30 | DIGSA phytotoxicity rating (0-100) ([21]; 500 g al/ha): 10 | AMARE phytotoxicity rating (0-100) ([22]; 500 g al/ha): 95 | crop damage rating SOY ([23]; 500 g ai/ha): 15 | SOY crop damage rating (0-100) ([24]; 500 g al/ha): 35 | CORN crop damage rating (0-100) ([25]; 500 g al/ha): 20 | RICE crop damage rating (0-100) ([26]; 500 g al/ha): 40
